Patent publication US4426390A, “Novel β-lactam compounds, process for producing thereof, and use thereof as medicines” (Sanraku-Ocean Co., Ltd., priority 1980, dated 1984)
In brackets after ≈: the same amount, converted by molar mass.

Tests used:
ddY mice = details: mouse, in vivo, ip, 500 mg/kg
[1] = Stability (half life) in phosphate buffers of various pH; format: physicochemical; details: phosphate buffer, pH 4 to 9, 28° C.
Protocol: By adding 2% sodium hydroxide or 10% hydrochloric acid, the pH of 0.05 M phosphate buffer is adjusted to 4, 5, 6, 7, 8 and 9, respectively, and distributed into test tubes in an amount of 3 ml. Concentrated solution of antibiotic OA-6129A (0.05 ml) is added to each test tube and allowed to stand in a thermostatic chamber of 28° C. The time course curve of the concentration decrease of antibiotic OA-6129A is drawn by spectrophotometric measurement at 300 nm, from which the half life of the antibiotic at the indicated pH is calculated. As a control, antibiotic PS-5, a carbapenem compound described in the above-cited reference is simultaneously tested.

[2] = system: Klebsiella pneumoniae K13; test: MIC by agar dilution method; format: cell-based; details: 37° C., 18 hours
Protocol: (§1) The MIC is measured by an agar dilution method based on the standard method of the Japanese Society of Chemotherapy (Japanese Society of Chemotherapy: The Revised Method of Determination of MIC Values, Chemotherapy 22, 1126-1128, […]). Specifically, the antibiotic is serially diluted with a 1/50 M phosphate buffer at a pH of 7.3 to prepare a twofold dilution series. One milliliter of each dilution and 9 ml of an agar medium (Heart Infusion Agar; a product of Difco Laboratories) are mixed and allowed to solidify in a Petri dish having a diameter of 9 cm. One loopful of the stock culture of the test microbe is inoculated in trypto-soy buillon (a product of Eiken Kagaku Co., Ltd.) and incubated at 37° C. for 18 hours. The resulting culture broth is diluted to a concentration of about 10^6 cells/ml with physiological saline and inoculated on the agar plate by means of a microplanter.

E. coli RGN823 = test: MIC by agar dilution method; format: cell-based; details: Escherichia coli, 37° C., 18 hours
Protocol: as §1

P. rettgeri P7 = test: MIC by agar dilution method; format: cell-based; details: Providencia rettgeri, P7, 18 h
Protocol: as §1

S. aureus Smith = test: MIC by agar dilution method; format: cell-based; details: Staphylococcus aureus, 37° C., 18 hours
Protocol: as §1

Serratia marcesceus S18 = test: MIC by agar dilution method; format: cell-based; details: 37° C., 18 hours
Protocol: as §1

P. sp. P22 = test: MIC by agar dilution method; format: cell-based; details: 37° C., 18 hours
Protocol: as §1

Ent. cloacae 45 = test: MIC by agar dilution method; format: cell-based; details: Enterobacter cloacae, 37° C., 18 hours
Protocol: as §1

[3] = system: Citrobacter Freundii GN346; test: MIC by agar dilution method; format: cell-based; details: 37° C., 18 hours
Protocol: as §1

S. epidermidis = test: MIC by agar dilution method; format: cell-based; details: Staphylococcus epidermidis, 37° C., 18 hours
Protocol: as §1

P. vulgaris GN76 = test: MIC by agar dilution method; format: cell-based; details: Proteus vulgaris, 37° C., 18 hours
Protocol: as §1

[4] = system: Staphylococcus aureus 209P; test: MIC by agar dilution method; format: cell-based; details: 37° C., 18 hours
Protocol: as §1

Ser. marcesceus T55 = test: MIC by agar dilution method; format: cell-based; details: 37° C., 18 hours
Protocol: as §1

Escherichia coli K-12 = test: MIC by agar dilution method; format: cell-based; details: Escherichia coli, K12, 18 h
Protocol: as §1

Ps. aeruginosa NCTC10490 = test: MIC by agar dilution method; format: cell-based; details: Pseudomonas aeruginosa, 37° C., 18 hours
Protocol: as §1

[5] = system: Pseudomonas aenginosa IFO3445; test: MIC by agar dilution method; format: cell-based; details: 37° C., 18 hours
Protocol: as §1

Proteus mirabilis P6 = test: MIC by agar dilution method; format: cell-based; details: Proteus mirabilis, P6, 18 h
Protocol: as §1

[6] = system: Enterobacter aerogenes E19; test: MIC by agar dilution method; format: cell-based; details: Klebsiella aerogenes, 37° C., 18 hours
Protocol: as §1

[7] = system: Bacillus subtillis ATCC 6633; test: MIC by agar dilution method; format: cell-based; details: ATCC6633; Bacillus subtillis ATCC 6633; agar dilution, 37° C., 18 hours; read-out: MIC
Protocol: as §1

Comamonas terrigena B996 = test: MIC by agar dilution method; format: cell-based; details: 37° C., 18 hours
Protocol: as §1

S. aureus Russell = test: MIC by agar dilution method; format: cell-based; details: Staphylococcus aureus; S. aureus Russell; agar dilution, 37° C., 18 hours; read-out: MIC
Protocol: as §1

Ent. sp. E8 = test: MIC by agar dilution method; format: cell-based; details: 18 h
Protocol: as §1

Providencia sp. P8 = test: MIC by agar dilution method; format: cell-based; details: Providencia, SP.P8, 18 h
Protocol: as §1

Alcaligenes Faecolis A1 = test: MIC by agar dilution method; format: cell-based; details: Alcaligenes, 18 h
Protocol: as §1

Sarcina lutea S19 = test: MIC by agar dilution method; format: cell-based; details: Micrococcus luteus, 37° C., 18 hours
Protocol: as §1

## CC(O)C1C(=O)N2C(C(=O)O)=C(SCCNC(=O)CCNC(=O)C(O)C(C)(C)CO)CC12 (centres unmarked) [OA-6129B]
ddY mice
  acute toxicity: no acute toxicity is observed
[1]
  stability relative to OA-6129A: substantially the same stability as antibiotic OA-6129A

## Cc1nnc(SCC2=C(C(=O)O)N3C(=O)[C@@H](NC(=O)Cn4cnnn4)[C@H]3SC2)s1 [CEZ, reference compound]
[2]
  MIC: 25 µg/mL (≈ 55 µM)
E. coli RGN823
  MIC: 1.56 µg/mL (≈ 3.43 µM)
P. rettgeri P7
  MIC: 3.13 µg/mL (≈ 6.89 µM)
S. aureus Smith
  MIC: 0.2 µg/mL (≈ 0.44 µM)
Serratia marcesceus S18
  MIC: > 400 µg/mL
P. sp. P22
  MIC: > 400 µg/mL
Ent. cloacae 45
  MIC: > 400 µg/mL
[3]
  MIC: > 400 µg/mL
S. epidermidis
  MIC: 0.2 µg/mL (≈ 0.44 µM)
P. vulgaris GN76
  MIC: > 400 µg/mL
[4]
  MIC: 0.1 µg/mL (≈ 0.22 µM)
Ser. marcesceus T55
  MIC: > 400 µg/mL
Escherichia coli K-12
  MIC: 0.78 µg/mL (≈ 1.72 µM)
Ps. aeruginosa NCTC10490
  MIC: > 400 µg/mL
[5]
  MIC: > 400 µg/mL
Proteus mirabilis P6
  MIC: 3.13 µg/mL (≈ 6.89 µM)
[6]
  MIC: > 400 µg/mL
[7]
  MIC: 0.1 µg/mL (≈ 0.22 µM)
Comamonas terrigena B996
  MIC: 0.05 µg/mL (≈ 0.11 µM)
S. aureus Russell
  MIC: 0.2 µg/mL (≈ 0.44 µM)
Ent. sp. E8
  MIC: 3.13 µg/mL (≈ 6.89 µM)
Providencia sp. P8
  MIC: 1.56 µg/mL (≈ 3.43 µM)
Alcaligenes Faecolis A1
  MIC: 3.13 µg/mL (≈ 6.89 µM)
Sarcina lutea S19
  MIC: 0.39 µg/mL (≈ 0.858 µM)
